Laboratory results published in publication PMC12476894, “Identification of α‑Azacyclic Acetamide-Based Inhibitors of P. falciparum Na^+ Pump (PfATP4) with Fast-Killing Asexual Blood-Stage Antimalarial Activity by Phenotypic Screening” (ACS Infectious Diseases, 2025).
Like-named read-outs stand apart in the source and are kept apart here.

How the values were obtained:
[1] = test system: isolated Pf3D7 trophozoites, [Na+]cyt; test: Measurement of P. falciparum cytosolic Na+ concentration (SBFI); assay type: cell-based, Plasmodium falciparum; settings: 1 μM
Description: Measurements were carried out in 96 well plates (excitation wavelengths: 340 and 380 nm; emission wavelength: 515 nm), as described previously. Fluorescence ratio values (340 nm/380 nm) were converted to [Na^+]cyt using a calibration procedure in which parasites were suspended in solutions of varying [Na^+] containing ionophores.

[2] = test system: P. falciparum NF54^luc parasites; test: 72 h SYBR Green growth inhibition, PfNF54^luc; assay type: cell-based; settings: Plasmodium falciparum, 72 h SYBR Green assay, read-out: PfNF54^luc EC50
Dd2-B2 (PfATP4^WT) = test: Drug susceptibility assay for cross-resistance profiling (Fidock Lab), parental line; assay type: cell-based, Plasmodium falciparum; settings: Plasmodium falciparum, DD2, 72 h, read-out: EC50, Dd2-B2
[3] = test system: PfDd2 parasites, 2- or 3-selected bulk cultures; test: EC50 of bulk cultures after rounds of resistance selection; assay type: cell-based; settings: Plasmodium falciparum, read-out: bulk culture EC50
Description: (§1) To confirm the MOA for the α-azacyclic acetamides against P. falciparum and to obtain potential information about whether or not they bind PfATP4 at an overlapping site with that of KAE609, we undertook resistance selections using PfDd2 parasites using the published cycling drug selection method. , α-Azacyclic acetamides 2 and 3 were chosen as representative examples of the pyrrole- and indole-based series, respectively. […] Additional cycles were performed at 20 × EC50, until resistant parasites were detected based on a fold change in EC50 compared to the parental clonal Dd2 line (Table S3). Resistant parasites were detected in the 2-selections in all 4 flasks after 4 pulses and for 3-selections in 3 flasks after 5 pulses. Clonal lines were generated from each flask, and one clone per flask was selected for WGS and EC50 determination (Tables S4 and S5). WGS analysis identified two single point mutations in PfATP4 that were not present in the original clonal Dd2 parasite line (Tables and S4). P412L was found in three of four flasks containing 2-selected resistance clones, and F917L was identified in all three flasks containing 3-selected clones and in the fourth flask containing 2-selected clones (Table S4). PfATP4 mutations identified by the WGS analysis in parasite lines were verified by PCR of the pfatp4 gene, followed by Sanger sequencing (Figures S5, S6 and Table S6). An additional protein coding gene (ribosomal protein S8e) was mutated in the 2-selections. However, this mutation was identified in only one of four sequenced clones and is therefore unlikely to be related to resistance to 2 (Figure S7). All three resistant clones derived from the 3-selections harbored an identical mutation in a gene (pfcpu) encoding a conserved protein of unknown function, which was absent in the parental line (Figure S8).
(§2) Resistant Dd2 parasites were selected using a high-pressure intermittent selection protocol using a previously described method. Selections were set up using 4 flasks per compound starting with approximately 3 × 10^9 parasites per flask (80 mL per flask, 4% hematocrit, 3% parasitemia at the beginning of each pulse, mostly ring-stage parasites via previous sorbitol synchronization. Pulse 1 and 2 (48 h) were conducted at 10xEC50, and subsequent pulses were conducted at 20xEC50. Parasites cleared within 48 h under these conditions. 3-Selections used a total of 4 pulses, while 2-selections required 5 pulses before resistant parasites emerged (Table S3). Culture media was replenished daily for a week after each pulse, then every 2 days with weekly replenishment of blood. Cultures were monitored by microscopy until recrudescence. Clonal parasites were obtained from each flask by limiting dilution and maintained in drug free RPMI-1640 media prior to being analyzed for EC50 shifts. Established clonal lines were aliquoted and stored at −80 °C after suspension in Glycerolyte 57 solution (Baxter Cat no 4A7831).

[4] = test system: Pf3D7 trophozoite-stage parasites, cytosolic pH (pHcyt); cell-based assay for ATP4 inhibition; test: P. falciparum cytosolic dose response pH assay (BCECF, with concanamycin A); settings: Plasmodium falciparum, read-out: Pf3D7 pH EC50
PfD10 attB + yDHODH = test: 72 h SYBR Green growth inhibition, strain expressing yeast DHODH; assay type: cell-based; settings: Plasmodium falciparum, read-out: PfD10 attB + yDHODH EC50, 72 h SYBR Green assay
Dd2^L350H (PfATP4^L350H) = test: Drug susceptibility assay for cross-resistance profiling (Fidock Lab), L350H; assay type: cell-based, Plasmodium falciparum; settings: Table 3 data set; for EC50: Plasmodium falciparum, DD2, 15-selected line
[5] = test system: Dd2 PfATP4^P412L mutant clones; test: 72 h SYBR Green growth inhibition, 2-selected Dd2 clones with PfATP4 P412L (Phillips Lab); assay type: cell-based, Plasmodium falciparum; settings: for EC50: Plasmodium falciparum
Description: as §1
ABS P. falciparum 3D7, Dd2 or PfNF54^luc parasites (BEI resources) were cultured in RPMI 1640 medium (Millipore Sigma), supplemented with 25 mM HEPES, 0.5% Albumax-I (Thermo Scientific), 23 mM sodium bicarbonate, 92 μM hypoxanthine, and 10 μg/mL gentamicin sulfate at 37 °C, 5% CO2, using deidentified O^+ red blood cells (BioIVT) as previously described. − Growth inhibition assays were conducted in 96 well plate format using the SYBR Green or luciferase reporter assay depending on the strain with modifications as described , (see Supporting Information for a detailed description). Details for the luciferase reporter assay are described below under the BRRoK assay section.
EC50 and CC50 values were determined by nonlinear regression performed in GraphPad Prism Version 10. Unless otherwise specified, data were fitted to the log(inhibitor) vs response–variable slope with four parameters equation. […] For mutant cell lines and compound combinations where bottom plateau of zero growth was not reached, the bottom of the curve was defined at 0% based on background values obtained for parental Dd2 from the same study.
as §2, with “Established clonal lines were aliquoted and stored at −80 °C after suspension in Glycerolyte 57 solution (Baxter Cat no 4A7831).” left out

[6] = DD2, read-out: EC50, 2-resistant Flask 2 Clone F9
[7] = DD2, read-out: EC50, 2-resistant Flask 3 Clone F5
[8] = DD2, read-out: EC50, 2-resistant Flask 4 Clone E10
[9] = DD2, read-out: EC50, 2-selected flask #3 clone F5

SMILES	increase in [Na+]cyt (in words) [1]	EC50 [2] [µM]	EC50 (Dd2-B2 (PfATP4^WT)) [µM]	EC50 [4] [µM]	EC50 (PfD10 attB + yDHODH) [µM]	EC50 (Dd2^L350H (PfATP4^L350H)) [µM]	EC50 fold-change vs Dd2-B2, Dd2^L350H (Dd2^L350H (PfATP4^L350H)) [fold]	EC50 [5, 6] [µM]	EC50 [5, 7] [µM]	EC50 [5, 8] [µM]	EC50 [5, 9] [µM]	Fold EC50 change compared to WT Dd2, 2-selected flask #3 clone F5 [5] [fold]	other results
Cc1ccnc(NC(=O)Cn2cccc2-c2nc(-c3ccccc3)cs2)c1 [compound 2, N-(4-methylpyridin-2-yl)-2-(2-(4-phenylthiazol-2-yl)-1H-pyrrol-1-yl)acetamide]	reduced response	0.72 ± 0.019	0.38 ± 0.031	1.6 ± 0.95	0.99	1.6 ± 0.16	4.2	> 10	> 10	> 10	29 ± 6.1	35	EC50 ([3]; 2-selected Flask 1, after Pulse 3 (20×EC50)): 0.57 µM; EC50 ([3]; 2-selected Flask 1, after Pulse 4 (20×EC50)): 8.4 µM; EC50 ([3]; 2-selected Flask 2, after Pulse 3 (20×EC50)): 0.58 µM; EC50 ([3]; 2-selected Flask 2, after Pulse 4 (20×EC50)): > 10 µM; EC50 ([3]; 2-selected Flask 3, after Pulse 3 (20×EC50)): 1.1 µM; EC50 ([3]; 2-selected Flask 3, after Pulse 4 (20×EC50)): > 10 µM; EC50 ([3]; 2-selected Flask 4, after Pulse 3 (20×EC50)): 0.81 µM; EC50 ([3]; 2-selected Flask 4, after Pulse 4 (20×EC50)): 6.6 µM
Cc1nn(CCNC(=O)Cn2c(C)c(C#N)c3ccccc32)c(C)c1Cl [compound 3, N-(2-(4-chloro-3,5-dimethyl-1H-pyrazol-1-yl)ethyl)-2-(3-cyano-2-methyl-1H-indol-1-yl)acetamide]	reduced response	0.94 ± 0.0027	0.54 ± 0.054	1.5 ± 0.047	0.93	3.4 ± 0.32	6.3	> 10	> 10	> 10	11 ± 1.8	10	EC50 ([3]; 3-selected Flask 1, after Pulse 2 (10×EC50)): 0.72 µM; EC50 ([3]; 3-selected Flask 1, after Pulse 3 (20×EC50)): 1.2 µM; EC50 ([3]; 3-selected Flask 2, after Pulse 2 (10×EC50)): 0.84 µM; EC50 ([3]; 3-selected Flask 2, after Pulse 3 (20×EC50)): > 10 µM; EC50 ([3]; 3-selected Flask 3, after Pulse 2 (10×EC50)): 1 µM; EC50 ([3]; 3-selected Flask 3, after Pulse 3 (20×EC50)): > 10 µM; EC50 ([3]; 3-selected Flask 4, after Pulse 2 (10×EC50)): 1.1 µM; EC50 ([3]; 3-selected Flask 4, after Pulse 3 (20×EC50)): > 10 µM
